Several values for one entry are separate records, joined by “and”; a condition that tells them apart may be missing. Equal entries are not always repeated.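 In this assay, cells in 96-well plates receive the compound at five concentrations for 48 hours. Endpoints are linearly interpolated between the surrounding concentrations. Abbreviation: GI50, concentration required for 50% inhibition of growth. Definition used: TGI = concentration required for complete inhibition of growth.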
Experiments:
Test in all cases: DTP human tumour cell line panel, 48 h
DU-145 prostate = tested on: DU-145 prostate
PC-3 prostate = tested on: PC-3 prostate
MDA-MB-435 = tested on: MDA-MB-435
MDA-N = tested on: MDA-N
XF 498 CNS = tested on: XF 498 CNS
SNB-78 CNS = tested on: SNB-78 CNS
T-47D breast = tested on: T-47D breast
MDA-MB-231 breast = tested on: MDA-MB-231 breast
RXF-631 renal = tested on: RXF-631 renal

## Cc1cc(=O)oc2c(C3=NN(C=O)C(c4ccccc4)C3)c(O)ccc12 (centres undefined)
DU-145 prostate
  TGI: > 100 µM
PC-3 prostate
  TGI: > 100 µM
MDA-MB-435
  TGI: > 100 µM
MDA-N
  TGI: > 100 µM
XF 498 CNS
  TGI: 42.1 µM
SNB-78 CNS
  TGI: > 96 µM
T-47D breast
  TGI: > 100 µM
MDA-MB-231 breast
  TGI: > 100 µM
RXF-631 renal
  TGI: > 100 µM

## CCN(CC)CCNc1c2ccccc2nc2cccc([N+](=O)[O-])c12
DU-145 prostate
  TGI: 0.0146 µM
PC-3 prostate
  TGI: 0.0122 µM
MDA-MB-435
  TGI: 0.00323 µM
MDA-N
  TGI: 0.00373 µM
XF 498 CNS
  TGI: 0.0569 µM and 0.0196 µM
SNB-78 CNS
  GI50: 0.023 µM
  TGI: 0.13 µM
T-47D breast
  TGI: 0.0661 µM
MDA-MB-231 breast
  TGI: 0.00487 µM
RXF-631 renal
  GI50: 0.0107 µM
  TGI: 0.0332 µM

## O=C(NCCCCCCCCCCCCNC(=O)c1cnc2ccccc2n1)c1cnc2ccccc2n1
SNB-78 CNS
  TGI: > 100 µM
RXF-631 renal
  TGI: > 100 µM

## O/N=C1/CCC/C1=C\c1ccccc1
XF 498 CNS
  TGI: > 100 µM
SNB-78 CNS
  TGI: > 100 µM

## CCOC(=O)c1oc2c(OC)ccc3c2c1CCC3
XF 498 CNS
  TGI: > 100 µM
SNB-78 CNS
  TGI: > 100 µM
RXF-631 renal
  TGI: > 100 µM

## Cc1cccc(C(C)(C)C)c1NC(=O)C(C#N)C1=C(Cl)C(=O)c2ccccc2C1=O (centres undefined)
DU-145 prostate
  TGI: 36.5 µM
PC-3 prostate
  TGI: 26.3 µM
MDA-MB-435
  TGI: 30.6 µM
MDA-N
  TGI: 27.4 µM
XF 498 CNS
  TGI: 29.4 µM
SNB-78 CNS
  TGI: 33.1 µM
T-47D breast
  TGI: 26.1 µM
MDA-MB-231 breast
  TGI: 27.3 µM

## CCCCC(C(=O)C(=O)Nc1ccc(C)cc1C)C(=O)C(C)C (centres undefined)
XF 498 CNS
  TGI: > 100 µM
SNB-78 CNS
  TGI: > 100 µM
RXF-631 renal
  TGI: > 100 µM

## CC(=O)Nc1ccccc1-c1nc2ccccc2nc1-c1ccccc1
XF 498 CNS
  TGI: > 100 µM
SNB-78 CNS
  TGI: > 100 µM

## CC(Oc1cc2oc(=O)cc(-c3ccccc3)c2cc1Cl)C(=O)O (centres undefined)
XF 498 CNS
  TGI: > 100 µM
SNB-78 CNS
  TGI: > 100 µM
RXF-631 renal
  TGI: > 100 µM

## CCc1cccc(C(C)C)c1NC(=O)CC1Sc2ccccc2NC1=O (centres undefined)
XF 498 CNS
  TGI: > 100 µM
SNB-78 CNS
  TGI: > 100 µM

## NCCOc1ccc(/C(=C(/Cl)c2ccccc2)c2ccccc2)cc1
XF 498 CNS
  TGI: 17.6 µM
SNB-78 CNS
  TGI: 25 µM
RXF-631 renal
  TGI: 26.3 µM

## O=C(CCc1nc(=S)[nH][nH]1)Nc1cc(Cl)ccc1Cl
RXF-631 renal
  TGI: > 100 µM

## COc1cccc(/C=N/[N-]C(=O)c2ccncc2)c1[O-].[Mn+2].[OH3+]
XF 498 CNS
  GI50: 12.3 µM
  TGI: 86.9 µM
SNB-78 CNS
  GI50: > 100 µM
  TGI: > 100 µM

## O=C1OC(CC(=O)c2ccc(F)cc2)C(Cl)=C1Cl (centres undefined)
XF 498 CNS
  TGI: 46.8 µM
SNB-78 CNS
  TGI: > 100 µM

## N#CCCN(CCC#N)c1ccc(/C=C(/NC(=O)c2cc([N+](=O)[O-])ccc2Cl)C(=O)N=[N+]=[N-])cc1
SNB-78 CNS
  TGI: > 100 µM
RXF-631 renal
  TGI: > 100 µM

## C[C@H]1CCC/C=C/C2CC(OC(=O)CN(C)C)CC2C(OC(=O)CN(C)C)/C=C/C(=O)O1 (some centres undefined)
DU-145 prostate
  GI50: 0.615 µM
  TGI: > 100 µM
PC-3 prostate
  GI50: 0.261 µM
  TGI: > 100 µM
MDA-MB-435
  GI50: 0.408 µM
  TGI: > 100 µM
MDA-N
  GI50: 0.427 µM
  TGI: > 100 µM
XF 498 CNS
  GI50: 0.179 µM
  TGI: 1.42 µM
SNB-78 CNS
  GI50: 0.227 µM
  TGI: > 100 µM
MDA-MB-231 breast
  GI50: 0.148 µM
  TGI: 0.806 µM

## CC(C)N(C(=O)C12C3C4C1C1C2C3C41C(=O)C(C)(C)C)C(C)C (centres undefined)
XF 498 CNS
  TGI: > 100 µM
SNB-78 CNS
  TGI: > 100 µM

## CC(=O)OC1C[C@H]2C(OC(=O)c3ccccc3)C3C4(OC(C)=O)COC4C[C@H](OC(C)=O)[C@@]3(C)C(OC(C)=O)[C@H](OC(C)=O)C(=C1C)C2(C)C (some centres undefined)
XF 498 CNS
  TGI: 63.8 µM
SNB-78 CNS
  TGI: > 100 µM

## NC1=NN(c2ccccc2)C(=O)C1C(=O)C(=O)Nc1ccc(Cl)cc1 (centres undefined)
SNB-78 CNS
  TGI: > 100 µM
RXF-631 renal
  TGI: > 100 µM

## COC(=O)C(C(=O)C(=O)Nc1ccc(C)cc1)c1nc2ccc([N+](=O)[O-])cc2[nH]c1=O (centres undefined)
XF 498 CNS
  TGI: > 100 µM
SNB-78 CNS
  TGI: > 100 µM

## C/C(=C1/N=C(c2cc([N+](=O)[O-])ccc2Cl)N(c2ccc(Br)cc2)C1=O)c1ccc(N(CCC#N)CCC#N)cc1C
XF 498 CNS
  TGI: > 100 µM
SNB-78 CNS
  TGI: > 100 µM
RXF-631 renal
  TGI: > 100 µM

## COc1ccc(C(c2ccccc2C(=O)O)c2ccc(OC)c3ccccc23)c2ccccc12
XF 498 CNS
  TGI: 46.7 µM
SNB-78 CNS
  TGI: 50.4 µM

## CCCCCCCCCCC(=O)CCCCCCC(=O)O
XF 498 CNS
  TGI: 97.8 µM
SNB-78 CNS
  TGI: > 100 µM
RXF-631 renal
  TGI: 43.3 µM

## C/C(=N\Nc1ccccc1)c1sc(-c2nc(C)c(/C(C)=N/Nc3ccccc3)s2)nc1C
XF 498 CNS
  TGI: > 100 µM
SNB-78 CNS
  TGI: > 100 µM

## O=C1NC(=O)C(C(=O)C(=O)Nc2cc(Cl)ccc2Cl)C(=O)N1
SNB-78 CNS
  TGI: > 100 µM
RXF-631 renal
  TGI: > 100 µM

## Nc1cn(C2OC(CC(c3ccccc3)(c3ccccc3)c3ccccc3)C(O)C2O)c(=O)[nH]c1=O (centres undefined)
XF 498 CNS
  TGI: 46.5 µM
SNB-78 CNS
  TGI: > 100 µM
RXF-631 renal
  TGI: > 100 µM

## Cc1ccccc1/C=C/c1csnn1
XF 498 CNS
  TGI: > 100 µM
SNB-78 CNS
  TGI: > 100 µM
RXF-631 renal
  TGI: > 100 µM

## c1ccc2c(c1)[nH]c1cnc3c4ncccc4[nH]c3c12
XF 498 CNS
  TGI: > 100 µM
SNB-78 CNS
  TGI: > 100 µM

From PubChem BioAssay (NCI)
